Earlier results on one molecule are cited in US20100034838A1, “Transdermal Administration of Active Agents for Systemic Effect” (priority 2005, published 2010).

SMILES strings stand for the structures.

Regarding `CN1CCCC1c1cccnc1` (centres unmarked) [nicotine], the “nicotine levels in the blood” value (nicotine patches, approximately 4-6 hours after adhesion of a medicinal patch to the skin) was 10 to 15 ng/mL. Further, the blood nicotine peak result (smoking a cigarette, approximately 5 minutes after smoking is commenced) was “about 25 ng/ml”.
